The CheMixHub ionic liquid set
Values joined by “and” are separate entries in the source; they are usually repeats but may differ in a detail not shown here. Equal entries are not always repeated.

Assay: xn = mol fraction of the nth substance listed

CCCCCCCCn1cc[n+](C)c1.[Br-] + O + CCCCCC[n+]1ccn(C)c1.[Br-]
electrical conductivity, 101.3 kPa
Details	x2 = 0.8977, x1 = 0.04147	x2 = 0.8977, x1 = 0.06092	x2 = 0.8993, x1 = 0.02123	x2 = 0.8993, x1 = 0.07955	x2 = 0.9473, x1 = 0.02113	x2 = 0.9473, x1 = 0.03155	x2 = 0.9477, x1 = 0.01078	x2 = 0.9477, x1 = 0.04155
293.15 K	3.55 S/m and 3.56 S/m and 3.57 S/m	3.41 S/m and 3.44 S/m (2×)	3.68 S/m and 3.69 S/m	3.3 S/m and 3.31 S/m and 3.32 S/m	3.98 S/m and 4 S/m and 4.01 S/m	3.83 S/m and 3.85 S/m and 3.87 S/m	4.14 S/m (2×) and 4.16 S/m	3.7 S/m and 3.71 S/m and 3.72 S/m
298.15 K	4.11 S/m and 4.12 S/m	3.95 S/m and 3.96 S/m and 3.98 S/m	4.25 S/m and 4.26 S/m	3.81 S/m and 3.83 S/m and 3.84 S/m	4.56 S/m and 4.6 S/m and 4.61 S/m	4.4 S/m and 4.44 S/m (2×)	4.74 S/m and 4.76 S/m and 4.77 S/m	4.25 S/m and 4.26 S/m and 4.28 S/m
303.15 K	4.67 S/m and 4.68 S/m and 4.7 S/m	4.51 S/m and 4.52 S/m and 4.54 S/m	4.85 S/m (2×) and 4.86 S/m	4.36 S/m and 4.37 S/m and 4.38 S/m	5.21 S/m and 5.22 S/m and 5.24 S/m	5.01 S/m and 5.03 S/m and 5.05 S/m	5.39 S/m and 5.4 S/m and 5.42 S/m	4.84 S/m and 4.86 S/m and 4.87 S/m

CCCCO + CCCC[n+]1ccn(C)c1.O=S(=O)([O-])C(F)(F)F
100 kPa, x2 = 0
Details	viscosity [mPa·s]
298.15 K	2.61
303.15 K	2.31
308.15 K	2.07
313.15 K	1.85
318.15 K	1.66
323.15 K	1.5

CCCCCCCCn1cc[n+](C)c1.F[B-](F)(F)F + CCO
Details	viscosity [mPa·s]
283.15 K, 101 kPa, x2 = 0.081	720

CCCC[n+]1ccn(C)c1.COP(=O)([O-])OC + CCCCCC(=O)O.CCCCCC(=O)[O-].CC[NH+](CC)CCO
101 kPa, x2 = 0
Details	viscosity [mPa·s]
298.15 K	609
303.15 K	426
318.15 K	168.9
333.15 K	79.9
358.15 K	30.38
363.15 K	25.86

[Cl-].[Cl-].[Co+2] + CCCCCCCC[N+](CCCCCCCC)(CCCCCCCC)CCCCCCCC.[Br-] + CCCCC/C=C\C/C=C\CCCCCCCC(=O)O
296.1 K, 101.3 kPa
Details	viscosity [mPa·s]
x2 = 0.4, x1 = 0.2	9700
x2 = 0.4286, x1 = 0.1429	2780

CCCC[n+]1ccn(C)c1.N[C@@H](CCC(=O)O)C(=O)[O-] + CO
101 kPa
Details	viscosity [mPa·s]
298.15 K, x2 = 0.2002	46.1
298.15 K, x2 = 0.2995	34.4
298.15 K, x2 = 0.7	4.97
298.15 K, x2 = 0.9	1.24
303.15 K, x2 = 0.6002	9.62
308.15 K, x2 = 0.6002	8.63
308.15 K, x2 = 0.8001	2.83
313.15 K, x2 = 0.2002	25.6
313.15 K, x2 = 0.7	4.55

CCCCCCCCn1cc[n+](C)c1.[Br-] + [Cl-].[Li+] + O
298.15 K, 100 kPa
Details	viscosity [mPa·s]
x2 = 0, x3 = 0.9487	7.96
x2 = 0.00845, x3 = 0.9403	7.94
x2 = 0.0171, x3 = 0.9316	8.68
x2 = 0.02497, x3 = 0.9237	10.09
x2 = 0.03315, x3 = 0.9155	10.9
x2 = 0.04088, x3 = 0.9078	12.6

F[P-](F)(F)(F)(F)F.[Li+] + CC[n+]1ccn(C)c1.O=S(=O)([O-])C(F)(F)F
electrical conductivity [S/m], 101 kPa
Details	x1 = 0.007746	x1 = 0.01537	x2 = 0.9673	x2 = 0.9746
288.15 K	0.614	0.559	–	0.532
298.15 K	0.898	0.816	0.786	0.785
333.15 K	2.3	2.08	2.08	2.02

CCCC[N+]1(C)CCCC1.O=S(=O)([N-]S(=O)(=O)C(F)(F)F)C(F)(F)F + CCOC(=O)OCC
100 kPa
Details	electrical conductivity [S/m]	viscosity [mPa·s]
293.15 K, x1 = 0.1001	0.343	1.84
293.15 K, x1 = 0.2	0.526	3.84
293.15 K, x1 = 0.4998	0.42	18.14
293.15 K, x1 = 0.8934	0.23	72.5
303.15 K, x1 = 0.2	0.648	3.18
303.15 K, x1 = 0.25	0.731	–
308.15 K, x1 = 0.4998	0.705	11.73
308.15 K, x1 = 0.8934	0.454	38.8
313.15 K, x1 = 0.1001	0.465	1.22
313.15 K, x1 = 0.25	0.9	–
323.15 K, x1 = 0.1001	0.539	1
323.15 K, x1 = 0.8006	0.793	18.67

CCCCCCCCCCCCCCCC[n+]1ccccc1.O=C([O-])c1ccccc1O + NCC(=O)O + O
electrical conductivity [S/m], 101 kPa
Details	293.15 K	298.15 K	303.15 K	308.15 K	313.15 K
x2 = 0.0009002, x1 = 5.4e-07	0.000445	0.000504	0.00057	0.000642	0.000723
x2 = 0.0009002, x1 = 1.26e-06	0.00068	0.000773	0.00087	0.000972	0.00108
x2 = 0.0009002, x1 = 1.63e-06	0.000841	0.000952	0.00107	0.0012	0.00134
x2 = 0.0009002, x1 = 1.99e-06	0.000997	0.00113	0.00127	0.00141	0.00156
x2 = 0.0009002, x1 = 2.35e-06	0.00114	0.00129	0.00145	0.00161	0.00179
x2 = 0.0009002, x1 = 2.89e-06	0.00127	0.00145	0.00164	0.00184	0.00205
x2 = 0.0009002, x1 = 3.43e-06	0.00141	0.00161	0.00185	0.00211	0.00234
x2 = 0.0009002, x1 = 4.16e-06	0.00157	0.0018	0.00206	0.00234	0.00264
x2 = 0.0009002, x1 = 4.88e-06	0.00173	0.00198	0.00226	0.00258	0.00292
x2 = 0.0009002, x1 = 5.6e-06	0.0019	0.00216	0.00247	0.00281	0.00318
x2 = 0.0009002, x1 = 6.32e-06	0.00205	0.00234	0.00267	0.00302	0.00343
x2 = 0.0009002, x1 = 6.87e-06	–	–	–	–	0.00364
x2 = 0.0009002, x1 = 7.05e-06	0.00217	0.0025	0.00284	0.00321	–
x2 = 0.0009002, x1 = 7.59e-06	0.00232	0.00264	0.003	0.00339	0.00383
x2 = 0.0009002, x1 = 8.13e-06	0.00244	0.00278	0.00314	0.00356	0.00402
x2 = 0.0009002, x1 = 8.67e-06	0.00258	0.00292	0.00331	0.00374	0.00421
x2 = 0.001799, x1 = 3.6e-07	0.000498	0.000578	0.00067	0.000776	0.0009
x2 = 0.001799, x1 = 9.1e-07	0.000684	0.000791	0.00091	0.00104	0.00119
x2 = 0.001799, x1 = 1.45e-06	0.000895	0.00102	0.00117	0.00132	0.0015
x2 = 0.001799, x1 = 1.99e-06	0.0011	0.00125	0.00141	0.0016	0.0018
x2 = 0.001799, x1 = 2.17e-06	0.00119	0.00135	0.00153	0.00172	0.00194
x2 = 0.001799, x1 = 2.54e-06	0.00127	0.00145	0.00166	0.00187	0.00209
x2 = 0.001799, x1 = 2.72e-06	0.00134	0.00155	0.00178	0.002	0.00225
x2 = 0.001799, x1 = 3.08e-06	0.0014	0.00162	0.00186	0.0021	0.00237
x2 = 0.001799, x1 = 3.26e-06	–	–	0.00195	0.00223	0.00251
x2 = 0.001799, x1 = 3.44e-06	0.00146	0.00169	–	–	–
x2 = 0.001799, x1 = 3.81e-06	0.00155	0.0018	0.00206	0.00236	0.00267
x2 = 0.001799, x1 = 4.35e-06	0.00167	0.00192	0.0022	0.00253	0.00287
x2 = 0.001799, x1 = 4.89e-06	0.00179	0.00206	0.00236	0.0027	0.00307
x2 = 0.001799, x1 = 5.44e-06	0.00192	0.0022	0.00252	0.00289	0.00328
x2 = 0.001799, x1 = 5.98e-06	0.00202	0.00232	0.00265	0.00303	0.00344
x2 = 0.001799, x1 = 6.34e-06	–	–	–	–	0.00359
x2 = 0.001799, x1 = 6.52e-06	0.00213	0.00244	0.00278	0.00316	–

CCCCCCCCn1cc[n+](C)c1.[Br-] + OC1OC[C@@H](O)[C@H](O)[C@H]1O + O
298.15 K, 101 kPa
Details	viscosity [mPa·s]
x2 = 0, x1 = 0.001831	0.965
x2 = 0, x1 = 0.003598	1.025
x2 = 0, x1 = 0.005443	1.103
x2 = 0, x1 = 0.007132	1.172
